≈ marks a conversion by molar mass, not a printed value.
Experiments:
[1] = system: Staphylococcus aureus ATCC 29213; test: Antibacterial activity, broth dilution MIC; type: cell-based; details: Staphylococcus aureus, ATCC29213, read-out: MIC values, SA1
Method: (§1) The antibacterial activities of compounds 1–13 were assessed using twofold serial dilutions of antibacterial agents in MH broth, according to previously reported standard methods provided by Clinical and Laboratory Standards Institute (CLSI)[30]. These compounds were tested for their antibacterial activities against Bacillus subtilis BS01, Staphyloccocus aureus ATCC 29213, Staphyloccocus aureus 745524, Bacillus thuringiensis BT01, and Enterococcus faecalis ATCC 29212 using a broth dilution method.

[2] = system: Staphylococcus aureus 745524; test: Antibacterial activity, broth dilution MIC; type: cell-based; details: Staphylococcus aureus, 745524, read-out: MIC values, SA2
Method: as §1

[3] = system: E. faecalis ATCC 29212; test: Antibacterial activity, broth dilution MIC; type: cell-based; details: Enterococcus faecalis, ATCC29212, read-out: MIC values, EF
Method: as §1

[4] = system: B. thuringiensis BT01; test: Antibacterial activity, broth dilution MIC; type: cell-based; details: Bacillus thuringiensis, BT01, read-out: MIC values, BT
Method: as §1

[5] = system: B. subtilis BS01; test: Antibacterial activity, broth dilution MIC; type: cell-based; details: Bacillus subtilis, BS01, read-out: MIC values, BS
Method: as §1

[6] = system: CytA; test: In vitro CytA enzymatic activity assay (HPLC analysis); type: biochemical, Streptomyces sp. SCSIO 1666; details: absence of O2 (anaerobic); 25 μM substrate, 0.5 μM CytA, 20 μM NADH, 37 °C
Text: To explore the biochemical activity of CytA in vitro, the cytA gene was cloned into the NdeI and EcoRI sites of the pET28a (+) vector and the resulting vector was transformed into E. coli BL21(DE3) using previously described methods. CytA was overexpressed as an N-terminally His6-tagged soluble protein and purified to homogeneity by Ni affinity chromatography (Fig. 2a). […] The activity of CytA was first investigated using substrates 6–9 and ε-rhodomycinone (10) under aerobic conditions. Reactions with CytA were conducted at 37 °C in a volume of 100 μL consisting of 50 mM Tris-Cl (pH 8.0), 25 μM substrate, 0.5 μM CytA, and 20 μM NADH. Reactions with boiled CytA served as controls; all reactions were carried out in parallel to ensure reaction consistency. Reactions were terminated by addition of twofold volume of methanol. As expected, CytA failed, under aerobic conditions to modify any of the substrates 6–10. […] On the heels of this finding we then determined the kinetic parameters of CytA using 6 and 7 as substrates.
Enzymatic reactions were carried out under anaerobic conditions in an anaerobic workstation (Don Whitley Scientific A45) containing a gas phase of N2/H2/CO2 (80:10: 10%, by vol.). ^1H, ^13C, and 2D (COSY, HMQC, HMBC and NOESY) NMR spectra were recorded at 25 °C with an Avance 700 MHz spectrometer instruments (Bruker). […]

[7] = system: Streptomyces sp. SCSIO 1666 WT; test: Growth inhibition zone assay; type: cell-based; details: WT producer, paper discs impregnated with compound, 1 μg
Text: We also noted that the ∆cytA mutant strain accumulated small amounts (80~100-fold lower than WT producer) of the immediate biosynthetic precursors of cosmomycins A (3) and B (4). The in vitro antimicrobial activities of compounds 1–13 against a panel of gram-positive bacteria (Table 2) provided some insight into the possible physiological significance of CytA-catalyzed reductions. Furthermore, we had observed that the ΔcytA mutant strain is clearly impaired relative to the WT strain upon addition of 6 or 7 as potential substrates. To evaluate this effect, we probed the sensitivity of Streptomyces sp. SCSIO 1666 to 6 and 7 in an inhibition zone assay (Fig. 3). A clear inhibition zone (16 mm) using the ΔcytA mutant plate was observed when supplemented with 1 μg of 6 or 7. […] That CytA production endows cosmomycin resistance provides strong evidence that the cytA gene directly confers Streptomyces. sp. SCSIO 1666 with the ability to protect itself from the effects by self-resistance to cosmomycins C and D.
Fig. 3 Sensitivity of Streptomyces sp. SCSIO 1666 toward cosmomycin C (6) and cosmomycin D (7) (1 μg) as determined by growth inhibition zone assays. […] TEXT PRINTED IN THE PICTURE: 6: ΔcytA mutant strain: 16 mm DOUBTS OF THE COPYIST ABOUT THIS PICTURE: 6, ΔcytA mutant strain: the small yellow print reads 16 mm, but it could be 15 or 18 mm / 6: the yellow double arrow marked 16 mm spans the zone around disc 6. The picture prints no measure name, so it may be the inhibition zone diameter or only a scale mark

[8] = system: CytA; test: Enzyme kinetics of CytA (formation of deglycosylation products, anaerobic); type: biochemical, Streptomyces sp. SCSIO 1666; details: for fold more efficient CytA processing than for 22–26: relative to clinical anthracyclines 22–26; for Km / kcat: substrate of CytA, 0.5 μM CytA, 20 μM NADH, anaerobic
Method: Enzymatic reactions were carried out under anaerobic conditions in an anaerobic workstation (Don Whitley Scientific A45) containing a gas phase of N2/H2/CO2 (80:10: 10%, by vol.). ^1H, ^13C, and 2D (COSY, HMQC, HMBC and NOESY) NMR spectra were recorded at 25 °C with an Avance 700 MHz spectrometer instruments (Bruker). High-resolution mass spectra were obtained with a Maxis quadrupole-time-of-flight mass spectrometer (Bruker).
To validate the in vitro biochemical activities of CytA, we overexpressed and purified this enzyme as a soluble N-terminally His6-tagged protein from E. coli (Fig. 2a). Tris-Cl buffer was made O2 free by boiling, followed by cooling under N2 flow; NADH stock solution (dissolved in Tris-Cl), substrate stock solution (dissolved in DMSO), and enzyme solution (dissolved in Tris-Cl supplemented with 10% glycerin) were subjected to O2 eliminating process in the anaerobic workstations for at least two cycles (40 min for one cycle). CytA enzymatic activity was tested in 50 μL volume containing 50 mM Tris-Cl (pH 8.0), 25 μM substrate, 0.5 μM CytA, and 20 μM NADH, at 37 °C for 30 min. The reaction was quenched with the addition to 2 volumes MeOH. After centrifugation to remove protein, supernatants were analyzed with Agilent HPLC equipment using a Phenomenex Prodigy ODS column S5 (150 × 4.60 mm, 5 μ) and UV detection at 254 and 500 nm. Samples were eluted with a gradient elution of phase A containing 0.1% TFA in ddH2O and phase B containing 100% acetonitrile, at a flow rate of 1 mL/min.
Kinetic analyses of CytA with putative substrates 6–10, daunorubicin, doxorubicin, idarubicin, epirubicin and pirarubicin, involved a reaction volume of 20 μL consisting of 50 mM Tris-Cl (pH 8.0), 0.5 μM CytA, 20 μM NADH, […]
All assays were performed in triplicate and Km and Vmax values were calculated on the basis of curve fitting to the Michaelis-Menten equation: v = Vmax *[S]/(Km + [S]) (Supplementary Fig. 7).
For kinetics of CytA, Origin 9.0 (OriginLab Co.) was used to analyze on the basis of curve fitting to the Michaelis-Menten equation. Experiments were performed in triplicate independently. For antibacterial activity, experiments were performed in triplicate using 96-well plates.

Compound	MIC [1]	MIC [2]	MIC [3]	MIC [4]	MIC [5]	conversion by CytA (C-7 reduction/deglycosylation) [6]	growth inhibition near paper discs [7]	fold more efficient CytA processing than for 22–26 [8]	Km [8]	kcat [8]
CC[C@@]1(O)C[C@H](O[C@H]2C[C@H](N(C)C)[C@@H](O[C@H]3C[C@H](O)[C@@H](O[C@H]4CC[C@H](O)[C@H](C)O4)[C@H](C)O3)[C@H](C)O2)c2c(O)c3c(c(O)c2[C@H]1O[C@H]1C[C@H](N(C)C)[C@@H](O[C@H]2CC[C@H](O[C@H]4CC[C@H](O)[C@H](C)O4)[C@H](C)O2)[C@H](C)O1)C(=O)c1cccc(O)c1C3=O [Compound 6, cosmomycin C]	0.03 µg/mL (≈ 0.0256 µM)	0.005 µg/mL (≈ 0.00426 µM)	0.001 µg/mL (≈ 0.000852 µM)	0.125 µg/mL (≈ 0.107 µM)	0.06 µg/mL (≈ 0.0511 µM)	readily convert	little to no growth inhibition	2–3 fold	14.3 µM	0.0118 s⁻¹
CC[C@@]1(O)C[C@H](O[C@H]2C[C@H](N(C)C)[C@H](O[C@H]3C[C@H](O)[C@H](O[C@H]4CC[C@H](O)[C@H](C)O4)[C@H](C)O3)[C@H](C)O2)c2c(O)c3c(c(O)c2[C@H]1O[C@H]1C[C@H](N(C)C)[C@H](O[C@H]2C[C@H](O)[C@H](O[C@H]4CC[C@H](O)[C@H](C)O4)[C@H](C)O2)[C@H](C)O1)C(=O)c1cccc(O)c1C3=O [Compound 7, cosmomycin D]	0.01 µg/mL (≈ 0.00841 µM)	0.005 µg/mL (≈ 0.0042 µM)	0.002 µg/mL (≈ 0.00168 µM)	0.125 µg/mL (≈ 0.105 µM)	0.03 µg/mL (≈ 0.0252 µM)	readily convert	little to no growth inhibition	2–3 fold	17.9 µM	0.0132 s⁻¹

— PMC6897945, “CytA, a reductase in the cytorhodin biosynthesis pathway, inactivates anthracycline drugs in Streptomyces” (Communications Biology, 2019)
